From the supplement of paper PMC6965134
± gives the standard deviation of the averaged measurements.

Test: TIMS collisional cross section (CCS, N2) of the lipid ion; higher = larger ion cross section
Details: ionization mode: negative, one isomer drawn
Description: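 Lipid extracts of human plasma (NIST SRM 1950), mouse liver or HeLa cells were separated by nanoflow C18 LC (30 min gradient) and analysed by TIMS-PASEF on a timsTOF Pro. Ion mobility was calibrated with the Agilent tuning mix (negative mode ions) and converted to collisional cross sections (Mason–Schamp, N2).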

[1] = sample type: Human plasma, ion (formula + adduct): [C42H78NO8P+HCOO] 1-
[2] = sample type: Mouse Liver, ion (formula + adduct): [C42H78NO8P+HCOO] 1-
[3] = sample type: Mouse Liver, ion (formula + adduct): [C46H82NO8P+HCOO] 1-
[4] = sample type: Mouse Liver, ion (formula + adduct): [C45H82NO8P+HCOO] 1-
[5] = sample type: Mouse Liver, ion (formula + adduct): [C47H82NO8P+HCOO] 1-
[6] = sample type: Mouse Liver, ion (formula + adduct): [C46H86NO8P+HCOO] 1-
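Further: lipids from MTBE extraction, five replicate injections per sample, 100 ms TIMS ramp spanning 0.6–1.95 Vs/cm², lipid identity assigned from PASEF MS/MS spectra.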

Compound: CCCCC/C=C\C/C=C\C/C=C\CCCCC(=O)O[C@H](COC(=O)CCCCCCCCCCCCCCC)COP(=O)([O-])OCC[N+](C)(C)C [PC 16:0_18:3@]
- TIMS collisional cross section [1]: 288.8 Å²

Compound: CCCCC/C=C\C/C=C\C/C=C\CCCCC(=O)O[C@H](COC(=O)CCCCCCCCCCCCCCC)COP(=O)([O-])OCC[N+](C)(C)C [PC 16:0_18:3]
- TIMS collisional cross section [1]: 289.9 Å²
- TIMS collisional cross section [2]: 289.15 ± 0.21 Å²

Compound: CC/C=C\C/C=C\C/C=C\C/C=C\C/C=C\CCCC(=O)O[C@H](COC(=O)CCCCCCCCCCCCCCC)COP(=O)([O-])OCC[N+](C)(C)C [PC 16:0_20:5]
- TIMS collisional cross section (sample type: Human plasma, ion (formula + adduct): [C44H78NO8P+HCOO] 1-): 292.7 Å²
- TIMS collisional cross section (sample type: Mouse Liver, ion (formula + adduct): [C44H78NO8P-CH3] 1-): 275.6 Å²

Compound: CCCCC/C=C\C/C=C\C/C=C\C/C=C\C/C=C\CCC(=O)O[C@H](COC(=O)CCCCCCCCCCCCCCC)COP(=O)([O-])OCC[N+](C)(C)C [PC 16:0_22:5]
- TIMS collisional cross section [3]: 298.9 Å²

Compound: CC/C=C\C/C=C\C/C=C\C/C=C\C/C=C\C/C=C\CCC(=O)O[C@H](COC(=O)CCCCCCCCCCCCCCC)COP(=O)([O-])OCC[N+](C)(C)C [PC 16:0_22:6]
- TIMS collisional cross section (sample type: Human plasma, ion (formula + adduct): [C46H80NO8P+HCOO] 1-): 297.8 Å²
- TIMS collisional cross section (sample type: Mouse Liver, ion (formula + adduct): [C46H80NO8P+HCOO] 1-): 297.75 ± 0.78 Å²

Compound: CCCCC/C=C\C/C=C\CCCCCCCC(=O)O[C@H](COC(=O)CCCCCCC/C=C\CCCCCC)COP(=O)([O-])OCC[N+](C)(C)C [PC 16:1@_18:2]
- TIMS collisional cross section (sample type: Mouse Liver, ion (formula + adduct): [C42H78NO8P-H] 1-): 273.3 Å²

Compound: CCCCC/C=C\C/C=C\C/C=C\C/C=C\CCCCCC(=O)O[C@H](COC(=O)CCCCCCC/C=C\CCCCCC)COP(=O)([O-])OCC[N+](C)(C)C [PC 16:1@_22:4]
- TIMS collisional cross section [3]: 297.7 Å²

Compound: CCCCC/C=C\C/C=C\C/C=C\C/C=C\C/C=C\CCC(=O)O[C@H](COC(=O)CCCCCCC/C=C\CCCCCC)COP(=O)([O-])OCC[N+](C)(C)C [PC 16:1@_22:5]
- TIMS collisional cross section (sample type: Mouse Liver, ion (formula + adduct): [C46H80NO8P-CH3] 1-): 280.1 Å²

Compound: CCCCCC/C=C\CCCCCCCC(=O)OC[C@H](COP(=O)([O-])OCC[N+](C)(C)C)OC(=O)CCCCCCCCCCCCC/C=C\CCCCCCCC [PC 16:1@_24:1]
- TIMS collisional cross section (sample type: Mouse Liver, ion (formula + adduct): [C48H92NO8P-CH3] 1-): 290.9 Å²

Compound: CCCCC/C=C\C/C=C\CCCCCCCC(=O)O[C@H](COC(=O)CCCCCCC/C=C\CCCCCC)COP(=O)([O-])OCC[N+](C)(C)C [PC 16:1_18:2]
- TIMS collisional cross section [2]: 288.8 Å²
- TIMS collisional cross section (sample type: Mouse Liver, ion (formula + adduct): [C42H78NO8P-CH3] 1-): 270.5 Å²

Compound: CCCCC/C=C\C/C=C\C/C=C\CCCCCCC(=O)O[C@H](COC(=O)CCCCCCC/C=C\CCCCCC)COP(=O)([O-])OCC[N+](C)(C)C [PC 16:1_20:3]
- TIMS collisional cross section (sample type: Mouse Liver, ion (formula + adduct): [C44H80NO8P-CH3] 1-): 276.2 Å²

Compound: CC/C=C\C/C=C\C/C=C\C/C=C\C/C=C\CCCC(=O)O[C@H](COC(=O)CCCCCCC/C=C\CCCCCC)COP(=O)([O-])OCC[N+](C)(C)C [PC 16:1_20:5]
- TIMS collisional cross section (sample type: Human plasma, ion (formula + adduct): [C44H76NO8P+HCOO] 1-): 290.4 Å²
- TIMS collisional cross section (sample type: Mouse Liver, ion (formula + adduct): [C44H76NO8P+HCOO] 1-): 290.4 Å²

Compound: CC/C=C\C/C=C\C/C=C\C/C=C\C/C=C\C/C=C\CCC(=O)O[C@H](COC(=O)CCCCCCC/C=C\CCCCCC)COP(=O)([O-])OCC[N+](C)(C)C [PC 16:1_22:6]
- TIMS collisional cross section (sample type: Human plasma, ion (formula + adduct): [C46H78NO8P+HCOO] 1-): 295.4 Å²

Compound: CCCCCCCCCCCCCCCCC(=O)OC[C@H](COP(=O)([O-])OCC[N+](C)(C)C)OC(C)=O [PC 17:0@_2:0]
- TIMS collisional cross section (sample type: Human plasma, ion (formula + adduct): [C27H54NO8P-H] 1-): 239 ± 3 Å²

Compound: CCCCCCCC/C=C\CCCCCCCC(=O)O[C@H](COC(=O)CCCCCCCCCCCCCCCC)COP(=O)([O-])OCC[N+](C)(C)C [PC 17:0@_18:1]
- TIMS collisional cross section (sample type: Mouse Liver, ion (formula + adduct): [C43H84NO8P+HCOO] 1-): 294.5 Å²

Compound: CCCCC/C=C\C/C=C\C/C=C\C/C=C\CCCC(=O)O[C@H](COC(=O)CCCCCCCCCCCCCCCC)COP(=O)([O-])OCC[N+](C)(C)C [PC 17:0@_20:4]
- TIMS collisional cross section [4]: 296.7 Å²

Compound: CC/C=C\C/C=C\C/C=C\C/C=C\C/C=C\C/C=C\CCC(=O)O[C@H](COC(=O)CCCCCCCCCCCCCCCC)COP(=O)([O-])OCC[N+](C)(C)C [PC 17:0@_22:6]
- TIMS collisional cross section (sample type: Human plasma, ion (formula + adduct): [C47H82NO8P+HCOO] 1-): 301.2 Å²
- TIMS collisional cross section [5]: 301.2 Å²

Compound: CCCCCCCC/C=C\CCCCCCCC(=O)O[C@H](COC(=O)CCCCCCCCCCCCCCCC)COP(=O)([O-])OCC[N+](C)(C)C [PC 17:0_18:1]
- TIMS collisional cross section (sample type: Human plasma, ion (formula + adduct): [C43H84NO8P+HCOO] 1-): 294.5 Å²

Compound: CCCCC/C=C\C/C=C\CCCCCCCC(=O)O[C@H](COC(=O)CCCCCCCCCCCCCCCC)COP(=O)([O-])OCC[N+](C)(C)C [PC 17:0_18:2]
- TIMS collisional cross section (sample type: Mouse Liver, ion (formula + adduct): [C43H82NO8P+HCOO] 1-): 293.3 Å²

Compound: CCCCC/C=C\C/C=C\C/C=C\C/C=C\CCCC(=O)O[C@H](COC(=O)CCCCCCCCCCCCCCCC)COP(=O)([O-])OCC[N+](C)(C)C [PC 17:0_20:4]
- TIMS collisional cross section [4]: 297.2 Å²

Compound: CC/C=C\C/C=C\C/C=C\C/C=C\C/C=C\C/C=C\CCC(=O)O[C@H](COC(=O)CCCCCCCCCCCCCCCC)COP(=O)([O-])OCC[N+](C)(C)C [PC 17:0_22:6]
- TIMS collisional cross section [5]: 300.6 Å²

Compound: C=CC(=O)O[C@H](COC(=O)CCCCCCCCCCCCCCCCC)COP(=O)([O-])OCC[N+](C)(C)C [PC 18:0@_3:1]
- TIMS collisional cross section (sample type: Mouse Liver, ion (formula + adduct): [C29H56NO8P+OAcO] 1-): 258.4 Å²

Compound: CCCCC/C=C\C/C=C\C/C=C\C/C=C\CCCC(=O)O[C@H](COC(=O)CCCCCCCCCCCCCCCCC)COP(=O)([O-])OCC[N+](C)(C)C [PC 18:0@_20:4]
- TIMS collisional cross section (sample type: Human plasma, ion (formula + adduct): [C46H84NO8P+HCOO] 1-): 297.2 Å²

Compound: CC/C=C\C/C=C\C/C=C\C/C=C\C/C=C\CCCC(=O)O[C@H](COC(=O)CCCCCCCCCCCCCCCCC)COP(=O)([O-])OCC[N+](C)(C)C [PC 18:0@_20:5]
- TIMS collisional cross section (sample type: Human plasma, ion (formula + adduct): [C46H82NO8P+HCOO] 1-): 301.2 Å²

Compound: CC/C=C\C/C=C\C/C=C\C/C=C\C/C=C\C/C=C\CCC(=O)O[C@H](COC(=O)CCCCCCCCCCCCCCCCC)COP(=O)([O-])OCC[N+](C)(C)C [PC 18:0@_22:6]
- TIMS collisional cross section (sample type: Human plasma, ion (formula + adduct): [C48H84NO8P+HCOO] 1-): 303.4 Å²

Compound: C=CC(=O)O[C@H](COC(=O)CCCCCCCCCCCCCCCCC)COP(=O)([O-])OCC[N+](C)(C)C [PC 18:0_3:1@]
- TIMS collisional cross section (sample type: Mouse Liver, ion (formula + adduct): [C29H56NO8P+AcO] 1-): 260.8 Å²
- TIMS collisional cross section (sample type: Mouse Liver, ion (formula + adduct): [C29H56NO8P+HCOO] 1-): 243.4 Å²

Compound: C=CC(=O)O[C@H](COC(=O)CCCCCCCCCCCCCCCCC)COP(=O)([O-])OCC[N+](C)(C)C [PC 18:0_3:1]
- TIMS collisional cross section (sample type: Human plasma, ion (formula + adduct): [C29H56NO8P+AcO] 1-): 252.1 Å²

Compound: CCCCCCCCCCCCCCCCCC(=O)OC[C@H](COP(=O)([O-])OCC[N+](C)(C)C)OC(=O)CCCCCCCCCCCCCCCCC [PC 18:0_18:0]
- TIMS collisional cross section (sample type: Mouse Liver, ion (formula + adduct): [C44H88NO8P+HCOO] 1-): 298.4 Å²

Compound: CCCCC/C=C\C=C/CCCCCCCCC(=O)O[C@H](COC(=O)CCCCCCCCCCCCCCCCC)COP(=O)([O-])OCC[N+](C)(C)C [PC 18:0_18:2]
- TIMS collisional cross section (sample type: Human plasma, ion (formula + adduct): [C44H84NO8P+HCOO] 1-): 296.5 ± 0.35 Å²
- TIMS collisional cross section (sample type: Mouse Liver, ion (formula + adduct): [C44H84NO8P+HCOO] 1-): 295.9 ± 0.17 Å²

Compound: CCCCCCCC/C=C\CCCCCCCCCC(=O)O[C@H](COC(=O)CCCCCCCCCCCCCCCCC)COP(=O)([O-])OCC[N+](C)(C)C [PC 18:0_20:1]
- TIMS collisional cross section (sample type: Mouse Liver, ion (formula + adduct): [C46H90NO8P+HCOO] 1-): 302.3 Å²

Compound: CCCCC/C=C\C/C=C\CCCC/C=C\CCCC(=O)O[C@H](COC(=O)CCCCCCCCCCCCCCCCC)COP(=O)([O-])OCC[N+](C)(C)C [PC 18:0_20:3@]
- TIMS collisional cross section [6]: 300.6 Å²

Compound: CCCCC/C=C\C/C=C\CCCC/C=C\CCCC(=O)O[C@H](COC(=O)CCCCCCCCCCCCCCCCC)COP(=O)([O-])OCC[N+](C)(C)C [PC 18:0_20:3]
- TIMS collisional cross section (sample type: Human plasma, ion (formula + adduct): [C46H86NO8P+HCOO] 1-): 300.6 Å²
- TIMS collisional cross section [6]: 300 Å²
